Source: patent US20240246908A1 (ORION CORPORATION, priority 2021, published 2024)

Tested on: YAP-TEAD
Test: TEAD inhibition, Hippo Pathway TEAD Reporter MCF-7 luciferase assay
Assay type: cell-based
Details: Homo sapiens, MCF7, 24 h, Hippo Pathway TEAD Reporter MCF-7 cells, luciferase activity after 24 h; read-out: IC50 of the test compounds on YAP-TEAD inhibition (Group)
Method in brief: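 IC50 derived from ONE-Glo luciferase luminescence after 24 h compound exposure (11 concentrations in quadruplicate, 0.1% DMSO control). Reporter: MCF-7 line expressing firefly luciferase under TEAD elements, constitutively activated by nuclear YAP1.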

IC50	SMILES
50 to 300 nM	COc1ccc(Oc2ccc(C(F)(F)F)cc2)cc1NC(=O)[C@H]1CNC(=O)C1 [Compound 357, (R)—N-(2-Methoxy-5-(4-(trifluoromethyl)phenoxy)phenyl)-5-oxopyrrolidine-3-carboxamide]
301 to 2000 nM	COc1ccc(Oc2ncc(C(F)(F)F)cc2F)cc1NC(=O)[C@@H]1CCCN1C(C)=O [Compound 358, (S)-1-Acetyl-N-(5-((3-fluoro-5-(trifluoromethyl)pyridin-2-yl)oxy)-2-methoxyphenyl)pyrrolidine-2-carboxamide]
50 to 300 nM	COc1ccc(Oc2ncc(C(F)(F)F)cc2F)cc1NC(=O)[C@@H]1CN(C)C(=O)N1C [Compound 359, (S)—N-(5-((3-Fluoro-5-(trifluoromethyl)pyridin-2-yl)oxy)-2-methoxyphenyl)-1,3-dimethyl-2-oxoimidazolidine-4-carboxamide]
50 to 300 nM	CN1C[C@@H](C(=O)Nc2cc(Oc3ccc(C(F)(F)F)cn3)cc3c2OCO3)N(C)C1=O [Compound 360, (S)-1,3-Dimethyl-2-oxo-N-(6-((5-(trifluoromethyl)pyridin-2-yl)oxy)benzo[d]-[1,3]dioxol-4-yl)imidazolidine-4-carboxamide]
< 50 nM	CN1C(=O)NC[C@H]1C(=O)Nc1cc(Oc2ccc(C(F)(F)F)cn2)c(F)cc1F [Compound 361, (S)—N-(2,4-Difluoro-5-((5-(trifluoromethyl)pyridin-2-yl)oxy)phenyl)-3-methyl-2-oxoimidazolidine-4-carboxamide]
< 50 nM	CN1C(=O)NC[C@H]1C(=O)Nc1cc(F)cc(Oc2ccc(C(F)(F)F)cn2)c1 [Compound 362, (S)—N-(3-Fluoro-5-((5-(trifluoromethyl)pyridin-2-yl)oxy)phenyl)-3-methyl-2-oxoimidazolidine-4-carboxamide]
< 50 nM	CN1C(=O)CC[C@H]1C(=O)Nc1cc(Oc2ccc(C(F)(F)F)cc2)ccc1F [Compound 363, (S)—N-(2-Fluoro-5-(4-(trifluoromethyl)phenoxy)phenyl)-1-methyl-5-oxo-pyrrolidine-2-carboxamide]
50 to 300 nM	CN1C[C@@H](C(=O)Nc2cc(Oc3ccc(C(F)(F)F)cn3)cc3c2OCC3)N(C)C1=O [Compound 364, (S)-1,3-Dimethyl-2-oxo-N-(5-((5-(trifluoromethyl)pyridin-2-yl)oxy)-2,3-dihydrobenzofuran-7-yl)imidazolidine-4-carboxamide]
< 50 nM	CN1C(=O)NC[C@H]1C(=O)Nc1cc(Oc2ccc(C(F)(F)F)cc2)ccc1F [Compound 365, (S)—N-(2-Fluoro-5-(4-(trifluoromethyl)phenoxy)phenyl)-3-methyl-2-oxo-imidazolidine-4-carboxamide]
301 to 2000 nM	CN1C(=O)CCC1C(=O)Nc1cc(Oc2cccc(C(F)(F)F)c2)ccc1Br (stereo not shown) [Compound 366, N-(2-Bromo-5-(3-(trifluoromethyl)phenoxy)phenyl)-1-methyl-5-oxopyrrolidine-2-carboxamide]
301 to 2000 nM	CN1C(=O)CCC1C(=O)Nc1cc(Oc2ccc(C(F)(F)F)cc2)ccc1C#N (stereo not shown) [Compound 367, N-(2-Cyano-5-(4-(trifluoromethyl)phenoxy)phenyl)-1-methyl-5-oxopyrrolidine-2-carboxamide]
50 to 300 nM	CN1C(=O)CCC1C(=O)Nc1cc(Oc2ccc(C(F)(F)F)cn2)ccc1F (stereo not shown) [Compound 368, N-(2-Fluoro-5-((5-(trifluoromethyl)pyridin-2-yl)oxy)phenyl)-1-methyl-5-oxopyrrolidine-2-carboxamide]
301 to 2000 nM	COc1ccc(Oc2ccc(C(F)(F)F)cc2)cc1NC(=O)[C@@H]1C[C@@H](O)CN1 [Compound 370, (2S,4R)-4-Hydroxy-N-(2-methoxy-5-(4-(trifluoromethyl)phenoxy)phenyl)pyrrolidine-2-carboxamide]
50 to 300 nM	COc1ccc(Oc2ccc(C(F)(F)F)cc2)cc1NC(=O)[C@@H]1CCC(=O)N1C(C)=O [Compound 371, (S)-1-Acetyl-N-(2-methoxy-5-(4-(trifluoromethyl)phenoxy)-phenyl)-5-oxopyrrolidine-2-carboxamide]
301 to 2000 nM	CN1C(=O)CCC1C(=O)Nc1cc(Oc2ccc(C(F)(F)F)cc2)ccc1O (stereo not shown) [Compound 372, N-(2-Hydroxy-5-(4-(trifluoromethyl)phenoxy)phenyl)-1-methyl-5-oxopyrrolidine-2-carboxamide]
301 to 2000 nM	CN1C(=O)NC[C@H]1C(=O)Nc1cc(Oc2ccc(C(F)(F)F)cn2)ccc1O [Compound 373, (S)—N-(2-Hydroxy-5-((5-(trifluoromethyl)pyridin-2-yl)oxy)phenyl)-3-methyl-2-oxoimidazolidine-4-carboxamide]
301 to 2000 nM	COc1ccc(Oc2ccc(C(F)(F)F)cc2)cc1NC(=O)C1CNCC(=O)N1C (stereo not shown) [Compound 374, N-(2-Methoxy-5-(4-(trifluoromethyl)phenoxy)phenyl)-1-methyl-6-oxopiperazine-2-carboxamide]
< 50 nM	CNC(CCC(=O)O)C(=O)Nc1cc(Oc2ccc(C(F)(F)F)cc2)ccc1OC (stereo not shown) [Compound 375]
50 to 300 nM	CN1C(=O)CNCC1C(=O)Nc1cc(Oc2ccc(C(F)(F)F)cc2)cc2c1OCC2 (stereo not shown) [Compound 376, 1-Methyl-6-oxo-N-(5-(4-(trifluoromethyl)phenoxy)-2,3-dihydro-benzofuran-7-yl)piperazine-2-carboxamide]

IC50	SMILES
50 to 300 nM	COc1ccc(Oc2ccc(C(F)(F)F)cc2)cc1NC(=O)C1CCC(=O)N1CCC(N)=O (stereo not shown) [Compound 379, 1-(3-Amino-3-oxopropyl)-N-(2-methoxy-5-(4-(trifluoromethyl)-phenoxy)phenyl)-5-oxopyrrolidine-2-carboxamide]
50 to 300 nM	COc1ccc(Oc2ccc(C(F)(F)F)cc2)cc1NC(=O)[C@@H]1C[C@H](O)C(=O)N1C [Compound 380, (2S,4S)-4-Hydroxy-N-(2-methoxy-5-(4-(trifluoromethyl)phenoxy)phenyl)-1-methyl-5-oxopyrrolidine-2-carboxamide]
50 to 300 nM	COc1ccc(Oc2ccc(C(F)(F)F)cc2)cc1NC(=O)C1CCS(=N)(=O)CC1 (stereo not shown) [Compound 381, 1-Imino-N-(2-methoxy-5-(4-(trifluoromethyl)phenoxy)phenyl)-hexahydro-1λ^6-thiopyran-4-carboxamide 1-oxide]
< 50 nM	COc1cc(F)c(Oc2ccc(C(F)(F)F)cc2)cc1NC(=O)C1CNC(=O)N1C (stereo not shown) [Compound 382, N-(4-Fluoro-2-methoxy-5-(4-(trifluoromethyl)phenoxy)phenyl)-3-methyl-2-oxoimidazolidine-4-carboxamide]
50 to 300 nM	CN1CC(=O)N(C)C(C(=O)Nc2cc(Oc3ccc(C(F)(F)F)cc3)cc3c2OCC3)C1 (stereo not shown) [Compound 383, 1,4-Dimethyl-6-oxo-N-(5-(4-(trifluoromethyl)phenoxy)-2,3-dihydrobenzofuran-7-yl)piperazine-2-carboxamide]
< 50 nM	COc1ccc(Oc2ccc(Cl)cc2F)cc1NC(=O)C1CCC(=O)N1C (stereo not shown) [Compound 385, N-(5-(4-Chloro-2-fluorophenoxy)-2-methoxyphenyl)-1-methyl-5-oxopyrrolidine-2-carboxamide]
301 to 2000 nM	COc1ccc(NC(=O)C2CCC(=O)N2C)cc1Cc1ccc(C(F)(F)F)cc1 (stereo not shown) [Compound 387, N-(4-Methoxy-3-(4-(trifluoromethyl)benzyl)phenyl)-1-methyl-5-oxo-pyrrolidine-2-carboxamide]
301 to 2000 nM	COc1ccc(Oc2ccc(C(F)(F)F)cc2)cc1NC(=O)c1coc(=O)[nH]1 [Compound 388, N-(2-Methoxy-5-(4-(trifluoromethyl)phenoxy)phenyl)-2-oxo-2,3-dihydrooxazole-4-carboxamide]
301 to 2000 nM	COc1ccc(Oc2ccc(F)c(F)c2)c(C)c1NC(=O)C1CCC(=O)N1C (stereo not shown) [Compound 389, N-(3-(3,4-Difluorophenoxy)-6-methoxy-2-methylphenyl)-1-methyl-5-oxopyrrolidine-2-carboxamide]
301 to 2000 nM	COc1ccc(Oc2cccc(C#N)c2)cc1NC(=O)C1CCC(=O)N1C (stereo not shown) [Compound 390, N-(5-(3-Cyanophenoxy)-2-methoxyphenyl)-1-methyl-5-oxopyrrolidine-2-carboxamide]
< 50 nM	COc1ccc(Oc2ccc(C(F)(F)F)c(OC)c2)cc1NC(=O)C1CCC(=O)N1C (stereo not shown) [Compound 391, N-(2-Methoxy-5-(3-methoxy-4-(trifluoromethyl)phenoxy)phenyl)-1-methyl-5-oxopyrrolidine-2-carboxamide]
301 to 2000 nM	COc1ccc(Oc2ccc(C(F)(F)F)cc2)cc1NC(=O)c1nnn[nH]1 [Compound 392, N-(2-Methoxy-5-(4-(trifluoromethyl)phenoxy)phenyl)-1H-tetrazole-5-carboxamide]
301 to 2000 nM	COc1ccc(Oc2cc(C(F)(F)F)ccn2)cc1NC(=O)[C@H]1CCC(=O)N1C [Compound 393, (R)—N-(2-Methoxy-5-((4-(trifluoromethyl)pyridin-2-yl)oxy)phenyl)-1-methyl-5-oxopyrrolidine-2-carboxamide]
301 to 2000 nM	COc1ccc(Oc2cc(C(F)(F)F)ccn2)cc1NC(=O)[C@@H]1CCC(=O)N1C [Compound 394, (S)—N-(2-Methoxy-5-((4-(trifluoromethyl)pyridin-2-yl)oxy)phenyl)-1-methyl-5-oxopyrrolidine-2-carboxamide]
< 50 nM	COc1ccc(Oc2ccc(C(F)(F)F)c(F)c2)cc1NC(=O)C1CCC(=O)N1C (stereo not shown) [Compound 395]
50 to 300 nM	COc1ccc(Oc2ccc(C#N)c(C(F)(F)F)c2)cc1NC(=O)C1CCC(=O)N1C (stereo not shown) [Compound 396, N-(5-(4-Cyano-3-(trifluoromethyl)phenoxy)-2-methoxyphenyl)-1-methyl-5-oxopyrrolidine-2-carboxamide]
301 to 2000 nM	COc1ccc(Oc2ccc(F)c(C#N)c2)cc1NC(=O)C1CCC(=O)N1C (stereo not shown) [Compound 397, N-(5-(3-Cyano-4-fluorophenoxy)-2-methoxyphenyl)-1-methyl-5-oxopyrrolidine-2-carboxamide]
< 50 nM	COc1ccc(Oc2ccc(C(F)(F)F)cc2F)cc1NC(=O)[C@@H]1CCC(=O)N1C [Compound 398, (S)—N-(5-(2-Fluoro-4-(trifluoromethyl)phenoxy)-2-methoxyphenyl)-1-methyl-5-oxopyrrolidine-2-carboxamide]
